From ChEMBL document CHEMBL1129393, “Synthesis of novel trans-4-(substituted-benzamido)-3,4-dihydro-2H-benzo[b]-pyran-3-ol derivatives as potential anticonvulsant agents with a distinctive binding profile” (J Med Chem, 1996)

Tests used:
Mus musculus [1] = test: Percentage increase in seizure threshold at dose of 10 mg/kg in mouse maximal electroshock seizure threshold (MEST) model after po administration; assay type: functional
Mus musculus [2] = test: Percentage increase in seizure threshold at dose of 3 mg/kg in mouse maximal electroshock seizure threshold (MEST) model after po administration
SB-204269 binding site = test: Inhibition of [3H]-SB 204269 binding to rat forebrain membranes.; assay type: cell membranes, Membrane

Structure (SMILES)	Increase (Mus musculus [1])	Increase (Mus musculus [2])	Log Ki (SB-204269 binding site)
CC1(C)Oc2ccc([N+](=O)[O-])cc2C(NC(=O)c2ccc(F)cc2)C1O (stereo not drawn)	45%	2%	-6.2
CC(=O)c1ccc2c(c1)OC(C)(C)C(O)C2NC(=O)c1ccc(F)cc1 (stereo not drawn)			-5.51
CC1(C)Oc2ccc(C(N)=O)cc2C(NC(=O)c2ccc(F)cc2)C1O (stereo not drawn)	6%		-6.06
Cc1ccc2c(c1)C(NC(=O)c1ccc(F)cc1)C(O)C(C)(C)O2 (stereo not drawn)	5%		-5.3
CC1(C)Oc2ccc(F)cc2C(NC(=O)c2ccc(F)cc2)C1O (stereo not drawn)	10%		-5.38
CC(=O)c1ccc2c(c1)[C@H](NC(=O)c1ccccc1)[C@@H](O)C(C)(C)O2	110%	65%	-7.3
CC(=O)c1cccc2c1C(NC(=O)c1ccc(F)cc1)C(O)C(C)(C)O2 (stereo not drawn)			-5.09
CC(=O)c1cccc2c1OC(C)(C)C(O)C2NC(=O)c1ccc(F)cc1 (stereo not drawn)	5%		-5
CC(=O)c1ccc2c(c1)[C@H](NC(=O)c1cccc(I)c1)[C@@H](O)C(C)(C)O2	51%		-8.28
CC(=O)c1ccc2c(c1)C(NC(=O)c1ccc(Cl)cc1)C(O)C(C)(C)O2 (stereo not drawn)	55%		-7.16
CC1(C)Oc2ccc(C#N)cc2[C@H](NC(=O)c2ccc(F)cc2)[C@H]1O	41%	15%	-6
CCC(=O)c1ccc2c(c1)C(NC(=O)c1ccc(F)cc1)C(O)C(C)(C)O2 (stereo not drawn)	35%		-6.8
CC(=O)c1ccc2c(c1)C(NC(=O)C1CCCCC1)C(O)C(C)(C)O2 (stereo not drawn)			-5.9
CC1(C)Oc2ccc(C(F)(F)C(F)(F)F)cc2[C@H](NC(=O)c2ccc(F)cc2)[C@H]1O	-8%		-6.35
CC1(C)Oc2ccc(C(=O)c3ccccc3)cc2C(NC(=O)c2ccc(F)cc2)C1O (stereo not drawn)			-6.12
CC1(C)Oc2ccc(S(=O)(=O)c3ccccc3)cc2C(NC(=O)c2ccc(F)cc2)C1O (stereo not drawn)	-7%		-5.84
COC(=O)c1ccc2c(c1)C(NC(=O)c1ccc(F)cc1)C(O)C(C)(C)O2 (stereo not drawn)	59%		-6.69
CC(=O)c1ccc2c(c1)[C@@H](NC(=O)c1ccc(F)cc1)[C@H](O)C(C)(C)O2	8%		< -4.5
CC(=O)c1ccc2c(c1)[C@H](NC(=O)c1ccccc1Cl)[C@@H](O)C(C)(C)O2		94%	-7.65
CC(=O)c1ccc2c(c1)[C@H](NC(=O)c1cccc(Cl)c1)[C@@H](O)C(C)(C)O2	90%	78%	-8.04
CC(=O)c1ccc2c(c1)[C@H](NC(=O)c1ccc(F)cc1)[C@@H](O)C(C)(C)O2 [CARABERSAT]	102%	89%	-7.32
